From ChEMBL document CHEMBL1201862, “PubChem BioAssay data set” (2004)
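Compound exposure: 48 hours, 5 concentrations, 96-well plates. GI50 marks 50% less growth.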 Calls of active or inactive are those of the source. Cut-off read from the data, not from the text of the source: active = GI50 up to about 1.1 µM and inactive = higher. Where a SMILES comes first, the peptide text is derived from it. [ ]: non-standard residue; d: D form. The star is where a group is joined. Octanoyl = CCCCCCCC(=O)*; Aib = CC(C)(N)C(=O)O; tBu = CC(C)(C)*

Legend:
Experiment in all cases: NCI anticancer screen, dose series, 48 h
OVCAR-4 = system: OVCAR-4
TK-10 = system: TK-10
LOX IMVI = system: LOX IMVI
BT-549 = system: BT-549
IGROV-1 = system: IGROV-1
NCI/ADR-RES = system: NCI/ADR-RES
SF-268 = system: SF-268
UACC-257 = system: UACC-257
EKVX = system: EKVX
MDA-MB-435 = system: MDA-MB-435
HCT-116 = system: HCT-116
HL-60 = system: HL-60
NCI-H460 = system: NCI-H460
DU-145 = system: DU-145
HT-29 = system: HT-29
MDA-MB-231 = system: MDA-MB-231
UO-31 = system: UO-31
HOP-62 = system: HOP-62
MCF7 = system: MCF7
Hs-578T = system: Hs-578T
COLO 205 = system: COLO 205
M14 = system: M14
A498 = system: A498
HCT-15 = system: HCT-15
RPMI-8226 = system: RPMI-8226
A549 = system: A549
SF-295 = system: SF-295
OVCAR-5 = system: OVCAR-5
CAKI-1 = system: CAKI-1
NCI-H23 = system: NCI-H23
NCI-H522 = system: NCI-H522
MDA-N = system: MDA-N
K562 = system: K562
UACC-62 = system: UACC-62
SN12C = system: SN12C
T47D = system: T47D
SK-MEL-5 = system: SK-MEL-5
SF-539 = system: SF-539
OVCAR-8 = system: OVCAR-8
SK-MEL-2 = system: SK-MEL-2
ACHN = system: ACHN
RXF 393 = system: RXF 393
U-251 = system: U-251
MOLT-4 = system: MOLT-4
KM12 = system: KM12
SNB-19 = system: SNB-19
Malme-3M = system: Malme-3M
OVCAR-3 = system: OVCAR-3
NCI-H226 = system: NCI-H226
PC-3 = system: PC-3
SW-620 = system: SW-620
SR = system: SR
SK-MEL-28 = system: SK-MEL-28
786-0 = system: 786-0
SNB-75 = system: SNB-75
CCRF-CEM = system: CCRF-CEM
HOP-92 = system: HOP-92
SK-OV-3 = system: SK-OV-3

## COC(=O)[C@@H]1CC(C(CN)c2cn(C(=O)OC(C)(C)C)c3ccccc23)C(=O)N1C(=O)OC(C)(C)C (stereo partly drawn)
OVCAR-4
  GI50: 20.9 µM (inactive)
TK-10
  GI50: 38.9 µM (inactive)
LOX IMVI
  GI50: 14.8 µM (inactive)
BT-549
  GI50: 31.6 µM (inactive)
IGROV-1
  GI50: 17.9 µM (inactive)
NCI/ADR-RES
  GI50: 17.2 µM (inactive)
SF-268
  GI50: 27.5 µM (inactive)
UACC-257
  GI50: 17.7 µM (inactive)
EKVX
  GI50: 19.4 µM (inactive)
MDA-MB-435
  GI50: 21.5 µM (inactive)
HCT-116
  GI50: 44.3 µM (inactive)
HL-60
  GI50: 21.8 µM (inactive)
NCI-H460
  GI50: 23.6 µM (inactive)
DU-145
  GI50: 44.2 µM (inactive)
HT-29
  GI50: 24.8 µM (inactive)
MDA-MB-231
  GI50: 22.4 µM (inactive)
UO-31
  GI50: 32.4 µM (inactive)
HOP-62
  GI50: 86.7 µM (inactive)
MCF7
  GI50: 23.8 µM (inactive)
Hs-578T
  GI50: 28.2 µM (inactive)
COLO 205
  GI50: 17.3 µM (inactive)
M14
  GI50: 50.7 µM (inactive)
A498
  GI50: 20.1 µM (inactive)
HCT-15
  GI50: 28.1 µM
RPMI-8226
  GI50: 10.6 µM (inactive)
A549
  GI50: 35.3 µM (inactive)
SF-295
  GI50: 21.6 µM (inactive)
OVCAR-5
  GI50: 27.2 µM (inactive)
CAKI-1
  GI50: 29.2 µM (inactive)
NCI-H23
  GI50: 35.8 µM (inactive)
NCI-H522
  GI50: 22.5 µM (inactive)
MDA-N
  GI50: 20 µM (inactive)
K562
  GI50: 21.9 µM (inactive)
UACC-62
  GI50: 15.1 µM (inactive)
SN12C
  GI50: 17.8 µM (inactive)
T47D
  GI50: 44.2 µM (inactive)
SK-MEL-5
  GI50: 17.2 µM (inactive)
SF-539
  GI50: 13.8 µM (inactive)
OVCAR-8
  GI50: 21.7 µM (inactive)
SK-MEL-2
  GI50: 22.4 µM (inactive)
ACHN
  GI50: 29.3 µM (inactive)
RXF 393
  GI50: 18 µM (inactive)
U-251
  GI50: 38.9 µM (inactive)
MOLT-4
  GI50: 17.1 µM (inactive)
KM12
  GI50: 52.2 µM (inactive)
SNB-19
  GI50: 69.3 µM (inactive)
Malme-3M
  GI50: 22.2 µM (inactive)
OVCAR-3
  GI50: 24.6 µM (inactive)
NCI-H226
  GI50: 29.9 µM (inactive)
PC-3
  GI50: 18.4 µM (inactive)
SW-620
  GI50: 50.7 µM (inactive)
SR
  GI50: 23.1 µM (inactive)
SK-MEL-28
  GI50: 17.3 µM (inactive)
786-0
  GI50: 31.3 µM (inactive)
SNB-75
  GI50: 6.31 µM (inactive)
CCRF-CEM
  GI50: 14.4 µM (inactive)

## CCCCCCCC(=O)NC(C)(C)C(=O)NC(COC(C)(C)C)C(=O)NC(CC(C)C)C(=O)NC(C)(C)C(=O)NC(COC(C)(C)C)C(=O)NC(COC(C)(C)C)C(=O)NC(CC(C)C)C(=O)NC(C)(C)C(=O)NC(COC(C)(C)C)C(=O)NC(C(=O)NC(CC(C)C)C(=O)OC)C(C)CC (stereo not drawn) (Octanoyl-[Aib]S(tBu)L[Aib]S(tBu)S(tBu)L[Aib]S(tBu)IL-OMe; configuration not given here)
OVCAR-4
  GI50: 8.63 µM (inactive)
TK-10
  GI50: 7.14 µM (inactive)
LOX IMVI
  GI50: 5.61 µM (inactive)
BT-549
  GI50: 5.38 µM (inactive)
IGROV-1
  GI50: 5.7 µM (inactive)
NCI/ADR-RES
  GI50: > 25 µM (inactive)
SF-268
  GI50: 9.95 µM (inactive)
UACC-257
  GI50: 8.81 µM (inactive)
EKVX
  GI50: 6.22 µM (inactive)
MDA-MB-435
  GI50: 7.94 µM (inactive)
HCT-116
  GI50: 7.18 µM (inactive)
HL-60
  GI50: 6.46 µM (inactive)
NCI-H460
  GI50: 5.64 µM (inactive)
DU-145
  GI50: 6.9 µM (inactive)
HT-29
  GI50: 4.94 µM (inactive)
MDA-MB-231
  GI50: 5.86 µM (inactive)
UO-31
  GI50: 14.6 µM (inactive)
HOP-62
  GI50: 9.31 µM (inactive)
MCF7
  GI50: 5.98 µM (inactive)
Hs-578T
  GI50: 8.85 µM (inactive)
COLO 205
  GI50: 6.55 µM (inactive)
M14
  GI50: 6.32 µM (inactive)
A498
  GI50: 5.5 µM (inactive)
HCT-15
  GI50: 8.13 µM
RPMI-8226
  GI50: 2.72 µM (inactive)
A549
  GI50: 8.18 µM (inactive)
SF-295
  GI50: 6.4 µM (inactive)
OVCAR-5
  GI50: 6.5 µM (inactive)
CAKI-1
  GI50: 18.5 µM (inactive)
NCI-H23
  GI50: 4.7 µM (inactive)
NCI-H522
  GI50: 6.41 µM (inactive)
MDA-N
  GI50: 8.65 µM (inactive)
K562
  GI50: 5.52 µM (inactive)
UACC-62
  GI50: 7.8 µM (inactive)
SN12C
  GI50: 7.57 µM (inactive)
T47D
  GI50: 6.38 µM (inactive)
SK-MEL-5
  GI50: 6.22 µM (inactive)
SF-539
  GI50: 8.49 µM (inactive)
OVCAR-8
  GI50: 8.65 µM (inactive)
SK-MEL-2
  GI50: 6.01 µM (inactive)
ACHN
  GI50: 7.62 µM (inactive)
RXF 393
  GI50: 3.57 µM (inactive)
U-251
  GI50: 5.24 µM (inactive)
MOLT-4
  GI50: 5.52 µM (inactive)
KM12
  GI50: 6.67 µM (inactive)
SNB-19
  GI50: 7.55 µM (inactive)
HOP-92
  GI50: 4.43 µM (inactive)
OVCAR-3
  GI50: 4.85 µM (inactive)
NCI-H226
  GI50: 7.33 µM (inactive)
SK-OV-3
  GI50: 11.8 µM (inactive)
PC-3
  GI50: 4.23 µM (inactive)
SW-620
  GI50: 8.95 µM (inactive)
SR
  GI50: 5.62 µM (inactive)
SK-MEL-28
  GI50: 14.4 µM (inactive)
786-0
  GI50: 7.89 µM (inactive)
SNB-75
  GI50: 5.24 µM (inactive)
CCRF-CEM
  GI50: 4.79 µM (inactive)
